In ChEMBL document CHEMBL1629551, “Evaluation of the antimicrobial, antioxidant, and anti-inflammatory activities of hydroxychavicol for its potential use as an oral care agent” (Antimicrob Agents Chemother, 2009):
≈ marks a conversion by molar mass, not a printed value. Calls of active or inactive are those of the source. No cut-off for these calls is given here.

Legend:
[1] = test system: Neutrophil; assay: Antiinflammatory activity against human neutrophils assessed as inhibition of LPS-stimulated TNFalpha production at 10 ug/ml after 3 hrs by FACS analysis
[2] = test system: Streptococcus mutans; conditions: ATCC 25175, 1000 ug/ml
Description: Antimicrobial activity against adherent cells of Streptococcus mutans ATCC 25175 assessed as inhibition of water-insoluble glucan synthesis at 1000 ug/ml in presence of sucrose

[3] = test system: Enterococcus faecalis; assay: Antimicrobial activity against Enterococcus faecalis ATCC 29212 by turbidimetric analysis; format: functional
[4] = test system: Liver microsomes; assay: Antioxidant activity in rat liver microsomes assessed as reduction in lipid peroxidation at 10 to 100 ug/ml by thiobarbituric acid assay; format: functional; conditions: Microsome
[5] = test system: Streptococcus mutans; assay: Bactericidal activity against Streptococcus mutans ATCC 25175 after 24 hrs by turbidimetric analysis; format: functional; conditions: ATCC 25175, 24 h
[6] = test system: Streptococcus mutans; assay: Antimicrobial activity against Streptococcus mutans ATCC 25175 assessed as inhibition of biofilm formation after 24 hrs by crystal violet staining; format: functional, organism-based; conditions: ATCC 25175, 24 h
[7] = species: Homo sapiens; assay: Toxicity in healthy human assessed as occurrence of tingling sensation; format: organism-based; conditions: in vivo
[8] = species: Homo sapiens; assay: Toxicity in healthy human assessed as occurrence of after taste; format: organism-based; conditions: in vivo
[9] = test system: Actinomyces viscosus; assay: Antimicrobial activity against Actinomyces viscosus ATCC 15987 assessed as eradication of preformed biofilm after 24 hrs by crystal violet staining; format: functional, organism-based; conditions: ATCC 15987, 24 h
[10] = test system: Prevotella intermedia; assay: Bactericidal activity against Prevotella intermedia ATCC 25611 after 24 hrs by turbidimetric analysis; format: functional; conditions: ATCC 25611, 24 h
[11] = test system: Streptococcus mutans; assay: Antimicrobial activity against Streptococcus mutans ATCC 25175 by turbidimetric analysis; format: functional
[12] = test system: Streptococcus mutans; assay: Antimicrobial activity against Streptococcus mutans ATCC 25175 at 125 to 500 ug/ml by time kill analysis; format: functional, organism-based; conditions: TDE = time-dependent effect
[13] = test system: Actinomyces viscosus; assay: Antimicrobial activity against Actinomyces viscosus ATCC 15987 assessed as inhibition of biofilm formation after 24 hrs by crystal violet staining; format: functional, organism-based; conditions: ATCC 15987, 24 h
[14] = test system: Streptococcus sanguinis; assay: Bactericidal activity against Streptococcus sanguis ATCC 10556 after 24 hrs by turbidimetric analysis; format: functional; conditions: ATCC 10556, 24 h
[15] = test system: Streptococcus mutans; assay: Antimicrobial activity against Streptococcus mutans ATCC 25175 assessed as post antibiotic effect at 250 ug/ml; format: functional
[16] = test system: Aggregatibacter actinomycetemcomitans; assay: Bactericidal activity against Haemophilus actinomycetemcomitans ATCC 29522 after 24 hrs by turbidimetric analysis; format: functional; conditions: ATCC 29522, 24 h
[17] = test system: Streptococcus mutans; assay: Antimicrobial activity against Streptococcus mutans ATCC 25175 assessed as eradication of preformed biofilm after 24 hrs by crystal violet staining; format: functional, organism-based; conditions: ATCC 25175, 24 h
[18] = test system: Streptococcus mutans; assay: Antimicrobial activity against Streptococcus mutans ATCC 25175 assessed as increase in membrane permeability at 1000 ug/ml after 30 mins by propidium iodide staining-based flow cytometry; format: functional, organism-based
[19] = test system: Streptococcus mutans; assay: Antimicrobial activity against Streptococcus mutans ATCC 25175 after 12 hrs by time kill analysis; format: functional, organism-based
[20] = test system: Neutrophil; assay: Antiinflammatory activity against human neutrophils assessed as inhibition of LPS-stimulated TNFalpha production at 2.5 ug/ml after 3 hrs by FACS analysis; format: functional, cell-based
[21] = test system: Streptococcus mutans; assay: Antimicrobial activity against adherent cells of Streptococcus mutans ATCC 25175 at 1000 ug/ml; format: functional, organism-based
[22] = test system: Enterococcus faecium; assay: Bactericidal activity against Enterococcus faecium ATCC 8042 after 24 hrs by turbidimetric analysis; format: functional; conditions: ATCC 8042, 24 h
[23] = test system: Neutrophil; assay: Antiinflammatory activity against human neutrophils assessed as inhibition of LPS-stimulated TNFalpha production at 10 ug/ml after 3 hrs by FACS analysis; format: functional, cell-based
[24] = test system: Neutrophil; assay: Antiinflammatory activity against human neutrophils assessed as inhibition of LPS-stimulated TNFalpha production at 5 ug/ml after 3 hrs by FACS analysis; format: functional, cell-based
[25] = test system: Porphyromonas gingivalis; assay: Bactericidal activity against Porphyromonas gingivalis ATCC 33277 after 24 hrs by turbidimetric analysis; format: functional; conditions: ATCC 33277, 24 h
[26] = test system: Enterococcus faecium; assay: Antimicrobial activity against Enterococcus faecium ATCC 8042 by turbidimetric analysis; format: functional
[27] = test system: Actinomyces viscosus; assay: Antimicrobial activity against Actinomyces viscosus ATCC 15987 by turbidimetric analysis; format: functional
[28] = test system: Streptococcus mutans; assay: Antimicrobial activity against Streptococcus mutans ATCC 25175 assessed as post antibiotic effect at 2 times MIC; format: functional
[29] = test system: Aggregatibacter actinomycetemcomitans; assay: Antimicrobial activity against Haemophilus actinomycetemcomitans ATCC 29522 by turbidimetric analysis; format: functional
[30] = test system: Enterococcus faecalis; assay: Bactericidal activity against Enterococcus faecalis ATCC 29212 after 24 hrs by turbidimetric analysis; format: functional; conditions: ATCC 29212, 24 h
[31] = test system: Prevotella intermedia; assay: Antimicrobial activity against Prevotella intermedia ATCC 25611 by turbidimetric analysis; format: functional
[32] = test system: Fusobacterium nucleatum; assay: Bactericidal activity against Fusobacterium nucleatum ATCC 10953 after 24 hrs by turbidimetric analysis; format: functional; conditions: ATCC 10953, 24 h
[33] = test system: Actinomyces viscosus; assay: Antimicrobial activity against Actinomyces viscosus ATCC 15987 assessed as post antibiotic effect at 2 times MIC; format: functional
[34] = test system: Actinomyces viscosus; assay: Bactericidal activity against Actinomyces viscosus ATCC 15987 after 24 hrs by turbidimetric analysis; format: functional; conditions: ATCC 15987, 24 h
[35] = test system: Streptococcus mutans; assay: Antimicrobial activity against Streptococcus mutans ATCC 25175 assessed as log reduction in bacterial growth at 250 ug/ml measured at 10 hrs by time kill analysis; format: functional
[36] = test system: Actinomyces viscosus; assay: Antimicrobial activity against Actinomyces viscosus ATCC 15987 assessed as increase in membrane permeability at 1000 ug/ml after 30 mins by propidium iodide staining-based flow cytometry; format: functional, organism-based
[37] = test system: Porphyromonas gingivalis; assay: Antimicrobial activity against Porphyromonas gingivalis ATCC 33277 by turbidimetric analysis; format: functional
[38] = test system: Fusobacterium nucleatum; assay: Antimicrobial activity against Fusobacterium nucleatum ATCC 10953 by turbidimetric analysis; format: functional
[39] = test system: Streptococcus sanguinis; assay: Antimicrobial activity against Streptococcus sanguis ATCC 10556 by turbidimetric analysis; format: functional
[40] = test system: Actinomyces viscosus; assay: Antimicrobial activity against Actinomyces viscosus ATCC 15987 assessed as post antibiotic effect at 250 ug/ml; format: functional
[41] = Cytotoxicity against human neutrophils at 2.5 to 10 ug/ml after 3 hrs by MTT assay; format: cell-based; conditions: neutrophil

Question: Which inhibition [1] does the source give for `COc1ccc(C2CNC(=O)C2)cc1OC1CCCC1` (configuration not stated) here?
Answer: The inhibition was “Active”.

Question: Which inhibition [2] does the source give for `C=CCc1ccc(O)c(O)c1` [HYDROXYCHAVICOL] here?
Answer: Its inhibition is “Active”.

Question: What about the MIC [3] of the same compound?
Answer: Its MIC is 250 µg/mL (≈ 1660 µM).

Question: What about the inhibition [4] of the same compound?
Answer: Its inhibition is 15%.

Question: What about the MBC [5] of the same compound?
Answer: Its MBC is 500 µg/mL (≈ 3330 µM).

Question: What about the IC50 [6] of the same compound?
Answer: Its IC50 is 500 µg/mL (≈ 3330 µM).

Question: What about the Activity [7] of the same compound?
Answer: The Activity was “Non-toxic”.

Question: And the Activity [8]?
Answer: The Activity was “Non-toxic”.

Question: What about the IC50 [9] of the same compound?
Answer: Its IC50 is 1000 µg/mL (≈ 6660 µM).

Question: What about the MBC [10] of the same compound?
Answer: The MBC was 125 µg/mL (≈ 832 µM).

Question: And the MIC [11]?
Answer: Its MIC is 250 µg/mL (≈ 1660 µM).

Question: And the Activity [12]?
Answer: Its Activity is “tde”.

Question: What about the IC50 [13] of the same compound?
Answer: The IC50 was 500 µg/mL (≈ 3330 µM).

Question: And the MBC [14]?
Answer: The MBC was 125 µg/mL (≈ 832 µM).

Question: And the PAE [15]?
Answer: Its PAE is 3.5 h.

Question: And the MBC [16]?
Answer: The MBC was 500 µg/mL (≈ 3330 µM).

Question: And the IC50 [17]?
Answer: Its IC50 is 500 µg/mL (≈ 3330 µM).

Question: And the Activity [18]?
Answer: Its Activity is “Active”.

Question: And the Activity [19]?
Answer: The Activity was “Dose-dependent effect”.

Question: What about the inhibition [20] of the same compound?
Answer: The inhibition was “Active”.

Question: What about the Activity [21] of the same compound?
Answer: Its Activity is “Active”.

Question: What about the MBC [22] of the same compound?
Answer: Its MBC is 500 µg/mL (≈ 3330 µM).

Question: What about the inhibition [23] of the same compound?
Answer: The inhibition was “Active”.

Question: What about the inhibition [24] of the same compound?
Answer: Its inhibition is “Active”.

Question: And the MBC [25]?
Answer: Its MBC is 62.5 µg/mL (≈ 416 µM).

Question: What about the MIC [26] of the same compound?
Answer: Its MIC is 250 µg/mL (≈ 1660 µM).

Question: What about the MIC [27] of the same compound?
Answer: Its MIC is 250 µg/mL (≈ 1660 µM).

Question: And the PAE [28]?
Answer: Its PAE is 6 h.

Question: And the MIC [29]?
Answer: Its MIC is 250 µg/mL (≈ 1660 µM).

Question: And the MBC [30]?
Answer: The MBC was 250 µg/mL (≈ 1660 µM).

Question: And the MIC [31]?
Answer: The MIC was 125 µg/mL (≈ 832 µM).

Question: What about the MBC [32] of the same compound?
Answer: The MBC was 125 µg/mL (≈ 832 µM).

Question: And the PAE [33]?
Answer: Its PAE is 7 h.

Question: And the MBC [34]?
Answer: Its MBC is 500 µg/mL (≈ 3330 µM).

Question: And the log reduction [35]?
Answer: The log reduction was 3.

Question: What about the Activity [36] of the same compound?
Answer: The Activity was “Active”.

Question: And the MIC [37]?
Answer: The MIC was 62.5 µg/mL (≈ 416 µM).

Question: What about the MIC [38] of the same compound?
Answer: The MIC was 125 µg/mL (≈ 832 µM).

Question: What about the MIC [39] of the same compound?
Answer: Its MIC is 125 µg/mL (≈ 832 µM).

Question: And the PAE [40]?
Answer: Its PAE is 4 h.

Question: And the Activity [41]?
Answer: The Activity was “Non-toxic”.

Question: With `Cc1ccc(C(C)C)c(O)c1` [THYMOL] as the compound, how does the Activity [41] read?
Answer: Its Activity is “Non-toxic”.
